From patent publication US20020137929A1, “1 - (3-heterocyclylphenyl) isothiourea, -isourea, -guanidine and -amidine herbicidal agents” (Intellectual Property Department, BASF Aktiengesellschaft, priority 1998, published 2002)

Legend:
[1] = tested on: CASOB (Sicklepod); experiment: Postemergence herbicidal evaluation; type: in vivo, Cassia obtusifolia
In short: (§1)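 Two-week-old seedlings sprayed with compound in 50/50 acetone/water plus 0.5% TWEEN 20, at about 0.0156 to 0.500 kg/ha, nozzle at 40 psi. Kept in greenhouse; rated visually 4-5 weeks after treatment on a 0-9 scale versus control, repeat tests averaged.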

[2] = tested on: CHEAL (Lambsquarters, Common); experiment: Postemergence herbicidal evaluation; type: in vivo, Chenopodium album
In short: as §1

[3] = tested on: ECHCG (Barnyardgrass); experiment: Postemergence herbicidal evaluation; type: in vivo, Echinochloa crus-galli
In short: as §1

[4] = tested on: ORYSAT (Rice, Tebonnet); experiment: Postemergence herbicidal evaluation; type: in vivo, Oryza sativa, (L.) Tebonnet
In short: as §1

[5] = tested on: GALAP (Galium); experiment: Preemergence herbicidal evaluation; type: in vivo, Galium aparine; settings: rated 4-5 weeks after treatment
In short: (§2)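 Test compound, dissolved in aqueous acetone, was sprayed over planted soil cups at an equivalent of about 0.0156 to 0.500 kg/ha; seeds had been mixed with potting soil. Greenhouse growth followed, with visual 0-9 scoring of injury at four to five weeks.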

[6] = tested on: SETVI (Foxtail, Green); experiment: Preemergence herbicidal evaluation; type: in vivo, Setaria viridis; settings: rated 4-5 weeks after treatment
In short: as §2

[7] = tested on: GLXMAW (Soybean, Williams); experiment: Preemergence herbicidal evaluation; type: in vivo, Glycine max, (L.) Merr. cv Williams; settings: rated 4-5 weeks after treatment
In short: as §2

[8] = tested on: ORYSAT (Rice, Tebonnet); experiment: Preemergence herbicidal evaluation; type: in vivo, Oryza sativa, (L.) Tebonnet; settings: rated 4-5 weeks after treatment
In short: as §2

[9] = tested on: TRZAWR (Wheat, Winter, cv Riband); experiment: Preemergence herbicidal evaluation; type: in vivo, Triticum aestivum; settings: rated 4-5 weeks after treatment
In short: as §2

[10] = tested on: ZEAMX (Corn, Field); experiment: Preemergence herbicidal evaluation; type: in vivo, Zea mays; settings: rated 4-5 weeks after treatment
In short: as §2

[11] = tested on: CYPIR (Rice Flatsedge); experiment: Preemergence weed control under flooded paddy conditions; type: in vivo, Cyperus iria; settings: rated 3-4 weeks after treatment
In short: (§3)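 Herbicidal effect is scored visually on a 0-9 scale against an untreated control, three to four weeks after compounds are pipetted into the flood water (1.5 to 3 cm deep) over seeds planted in silt loam at 0.5 cm depth. Rates: about 0.0313 to 0.500 kg/ha.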

[12] = tested on: MOOVA (Monochoria); experiment: as above; type: in vivo, Monochoria vaginalis; settings: rated 3-4 weeks after treatment
In short: as §3

[13] = tested on: SAGPY (Arrowhead (Pygmaea)); experiment: as above; type: in vivo, Sagittaria pygmaea; settings: rated 3-4 weeks after treatment
In short: as §3

[14] = tested on: CYPSE (Flatsedge); experiment: Postemergence weed control under flooded paddy conditions; type: in vivo, Cyperus serotinus; settings: postemergence weeds, 3-4 weeks after treatment
In short: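 Herbicidal effect is judged by eye on a 0–9 scale versus control, 3–4 weeks after dosing. Dosing is into flood water kept 1.5–3 cm over the soil, at about 0.0313–0.500 kg/ha in aqueous/acetone 50/50 v/v, on 3–5 cm weeds and 1.5–2.5-leaf rice seedlings.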

Compound: Cn1c(C(F)(F)F)cc(=O)n(-c2cc(N=C3SCC(=O)N3CC(=O)OC(C)(C)C)c(Cl)cc2F)c1=O [Compound 43, tert-Butyl 2-{{2-chloro-5-[3,6-dihydro-3-methyl-2,6-dioxo-4-(trifluoromethyl)-1(2H)-pyrimidinyl]-4-fluorophenyl}imino}-4-oxo-3-thiazolidineacetate]
- Postemergence herbicidal rating CASOB ([1]; Rate 0.0158 kg/ha): 9.0
- Postemergence herbicidal rating CASOB ([1]; Rate 0.0315 kg/ha): 9.0
- Postemergence herbicidal rating CASOB ([1]; Rate 0.0630 kg/ha): 9.0
- Postemergence herbicidal rating CHEAL ([2]; Rate 0.0158 kg/ha): 5.0
- Postemergence herbicidal rating CHEAL ([2]; Rate 0.0315 kg/ha): 9.0
- Postemergence herbicidal rating CHEAL ([2]; Rate 0.0630 kg/ha): 9.0
- Postemergence herbicidal rating ECHCG ([3]; Rate 0.0158 kg/ha): 0.0
- Postemergence herbicidal rating ECHCG ([3]; Rate 0.0315 kg/ha): 0.0
- Postemergence herbicidal rating ECHCG ([3]; Rate 0.0630 kg/ha): 0.0
- Postemergence herbicidal rating ORYSAT ([4]; Rate 0.0158 kg/ha): 1.0
- Postemergence herbicidal rating ORYSAT ([4]; Rate 0.0315 kg/ha): 2.0
- Postemergence herbicidal rating ORYSAT ([4]; Rate 0.0630 kg/ha): 3.0
- Preemergence herbicidal rating GALAP ([5]; rate 0.0156 kg/ha): 0.0
- Preemergence herbicidal rating GALAP ([5]; rate 0.0313 kg/ha): 0.0
- Preemergence herbicidal rating GALAP ([5]; rate 0.0625 kg/ha): 0.0
- Preemergence herbicidal rating GALAP ([5]; rate 0.1250 kg/ha): 9.0
- Preemergence herbicidal rating GALAP ([5]; rate 0.2500 kg/ha): 9.0
- Preemergence herbicidal rating SETVI ([6]; rate 0.0156 kg/ha): 0.0
- Preemergence herbicidal rating SETVI ([6]; rate 0.0313 kg/ha): 0.0
- Preemergence herbicidal rating SETVI ([6]; rate 0.0625 kg/ha): 0.0
- Preemergence herbicidal rating SETVI ([6]; rate 0.1250 kg/ha): 5.0
- Preemergence herbicidal rating SETVI ([6]; rate 0.2500 kg/ha): 9.0
- Preemergence herbicidal rating GLXMAW ([7]; rate 0.0156 kg/ha): 0.0
- Preemergence herbicidal rating GLXMAW ([7]; rate 0.0313 kg/ha): 0.0
- Preemergence herbicidal rating GLXMAW ([7]; rate 0.0625 kg/ha): 0.0
- Preemergence herbicidal rating GLXMAW ([7]; rate 0.1250 kg/ha): 0.0
- Preemergence herbicidal rating GLXMAW ([7]; rate 0.2500 kg/ha): 2.0
- Preemergence herbicidal rating ORYSAT ([8]; rate 0.0156 kg/ha): 0.0
- Preemergence herbicidal rating ORYSAT ([8]; rate 0.0313 kg/ha): 0.0
- Preemergence herbicidal rating ORYSAT ([8]; rate 0.0625 kg/ha): 0.0
- Preemergence herbicidal rating ORYSAT ([8]; rate 0.1250 kg/ha): 0.0
- Preemergence herbicidal rating ORYSAT ([8]; rate 0.2500 kg/ha): 0.0
- Preemergence herbicidal rating TRZAWR ([9]; rate 0.0156 kg/ha): 0.0
- Preemergence herbicidal rating TRZAWR ([9]; rate 0.0313 kg/ha): 0.0
- Preemergence herbicidal rating TRZAWR ([9]; rate 0.0625 kg/ha): 0.0
- Preemergence herbicidal rating TRZAWR ([9]; rate 0.1250 kg/ha): 1.0
- Preemergence herbicidal rating TRZAWR ([9]; rate 0.2500 kg/ha): 4.0
- Preemergence herbicidal rating ZEAMX ([10]; rate 0.0156 kg/ha): 0.0
- Preemergence herbicidal rating ZEAMX ([10]; rate 0.0313 kg/ha): 0.0
- Preemergence herbicidal rating ZEAMX ([10]; rate 0.0625 kg/ha): 0.0
- Preemergence herbicidal rating ZEAMX ([10]; rate 0.1250 kg/ha): 3.0
- Preemergence herbicidal rating ZEAMX ([10]; rate 0.2500 kg/ha): 6.0
- Herbicidal rating CYPIR ([11]; 0.0313 kg/ha): 0.0
- Herbicidal rating CYPIR ([11]; 0.0625 kg/ha): 2.0
- Herbicidal rating CYPIR ([11]; 0.1250 kg/ha): 4.0
- Herbicidal rating CYPIR ([11]; 0.2500 kg/ha): 5.0
- Herbicidal rating MOOVA ([12]; 0.0313 kg/ha): 9.0
- Herbicidal rating MOOVA ([12]; 0.0625 kg/ha): 9.0
- Herbicidal rating MOOVA ([12]; 0.1250 kg/ha): 9.0
- Herbicidal rating MOOVA ([12]; 0.2500 kg/ha): 9.0
- Herbicidal rating SAGPY ([13]; 0.0313 kg/ha): 7.0
- Herbicidal rating SAGPY ([13]; 0.0625 kg/ha): 7.0
- Herbicidal rating SAGPY ([13]; 0.1250 kg/ha): 7.0
- Herbicidal rating SAGPY ([13]; 0.2500 kg/ha): 9.0
- Herbicidal rating CYPSE ([14]; rate 0.0313 kg/ha): 5.0
- Herbicidal rating CYPSE ([14]; rate 0.1250 kg/ha): 8.0
- Herbicidal rating CYPSE ([14]; rate 0.2500 kg/ha): 9.0

Compound: CCOC(=O)CN1C(=O)CS(=O)(=O)C1=Nc1cc(-n2c(=O)cc(C(F)(F)F)n(C)c2=O)c(F)cc1Cl [Compound 46, 2-{{2-Chloro-5-[3,6-dihydro-3-methyl-2,6-dioxo-4-(trifluoromethyl)-1(2H)-pyrimidinyl]-4-fluoro-phenyl}imino}-4-oxo-3-thiazolidineacetic acid, ethyl ester, 1,1-dioxide]
- Postemergence herbicidal rating CASOB ([1]; Rate 0.0313 kg/ha): 0.0
- Postemergence herbicidal rating CASOB ([1]; Rate 0.0625 kg/ha): 0.0
- Postemergence herbicidal rating CHEAL ([2]; Rate 0.0313 kg/ha): 0.0
- Postemergence herbicidal rating CHEAL ([2]; Rate 0.0625 kg/ha): 0.0
- Postemergence herbicidal rating ECHCG ([3]; Rate 0.0313 kg/ha): 0.0
- Postemergence herbicidal rating ECHCG ([3]; Rate 0.0625 kg/ha): 0.0
- Postemergence herbicidal rating ORYSAT ([4]; Rate 0.0313 kg/ha): 1.0
- Postemergence herbicidal rating ORYSAT ([4]; Rate 0.0625 kg/ha): 1.5
- Preemergence herbicidal rating GALAP ([5]; rate 0.1250 kg/ha): 0.0
- Preemergence herbicidal rating GALAP ([5]; rate 0.2500 kg/ha): 0.0
- Preemergence herbicidal rating SETVI ([6]; rate 0.1250 kg/ha): 0.0
- Preemergence herbicidal rating SETVI ([6]; rate 0.2500 kg/ha): 0.0
- Preemergence herbicidal rating GLXMAW ([7]; rate 0.1250 kg/ha): 0.0
- Preemergence herbicidal rating GLXMAW ([7]; rate 0.2500 kg/ha): 0.0
- Preemergence herbicidal rating ORYSAT ([8]; rate 0.1250 kg/ha): 0.0
- Preemergence herbicidal rating ORYSAT ([8]; rate 0.2500 kg/ha): 0.0
- Preemergence herbicidal rating TRZAWR ([9]; rate 0.1250 kg/ha): 0.0
- Preemergence herbicidal rating TRZAWR ([9]; rate 0.2500 kg/ha): 0.0
- Preemergence herbicidal rating ZEAMX ([10]; rate 0.1250 kg/ha): 0.0
- Preemergence herbicidal rating ZEAMX ([10]; rate 0.2500 kg/ha): 1.0
- Herbicidal rating CYPIR ([11]; 0.0313 kg/ha): 0.0
- Herbicidal rating CYPIR ([11]; 0.0625 kg/ha): 0.0
- Herbicidal rating CYPIR ([11]; 0.1250 kg/ha): 0.0
- Herbicidal rating CYPIR ([11]; 0.2500 kg/ha): 0.0
- Herbicidal rating MOOVA ([12]; 0.0313 kg/ha): 3.0
- Herbicidal rating MOOVA ([12]; 0.0625 kg/ha): 4.0
- Herbicidal rating MOOVA ([12]; 0.1250 kg/ha): 6.0
- Herbicidal rating MOOVA ([12]; 0.2500 kg/ha): 7.0
- Herbicidal rating SAGPY ([13]; 0.0313 kg/ha): 0.0
- Herbicidal rating SAGPY ([13]; 0.0625 kg/ha): 0.0
- Herbicidal rating SAGPY ([13]; 0.1250 kg/ha): 0.0
- Herbicidal rating SAGPY ([13]; 0.2500 kg/ha): 3.0
- Herbicidal rating CYPSE ([14]; rate 0.0313 kg/ha): 0.0
- Herbicidal rating CYPSE ([14]; rate 0.0625 kg/ha): 0.0
- Herbicidal rating CYPSE ([14]; rate 0.1250 kg/ha): 0.0
- Herbicidal rating CYPSE ([14]; rate 0.2500 kg/ha): 6.0
